The values that follow come from US8377943B2, “2,4-diaminopyrimidine derivates as PTK2-inhibitors for the treatment of abnormal cell growth” (Boehringer Ingelheim International GmbH, priority 2008, dated 2013).

The EC50 is the concentration that produces a half-maximal response. One may read the IC50 as the point on the concentration scale where inhibition reaches its midpoint. A high value points to weaker potency in that assay.

Each structure is given as a SMILES string.

T2 sequence (Q05397 whole entry): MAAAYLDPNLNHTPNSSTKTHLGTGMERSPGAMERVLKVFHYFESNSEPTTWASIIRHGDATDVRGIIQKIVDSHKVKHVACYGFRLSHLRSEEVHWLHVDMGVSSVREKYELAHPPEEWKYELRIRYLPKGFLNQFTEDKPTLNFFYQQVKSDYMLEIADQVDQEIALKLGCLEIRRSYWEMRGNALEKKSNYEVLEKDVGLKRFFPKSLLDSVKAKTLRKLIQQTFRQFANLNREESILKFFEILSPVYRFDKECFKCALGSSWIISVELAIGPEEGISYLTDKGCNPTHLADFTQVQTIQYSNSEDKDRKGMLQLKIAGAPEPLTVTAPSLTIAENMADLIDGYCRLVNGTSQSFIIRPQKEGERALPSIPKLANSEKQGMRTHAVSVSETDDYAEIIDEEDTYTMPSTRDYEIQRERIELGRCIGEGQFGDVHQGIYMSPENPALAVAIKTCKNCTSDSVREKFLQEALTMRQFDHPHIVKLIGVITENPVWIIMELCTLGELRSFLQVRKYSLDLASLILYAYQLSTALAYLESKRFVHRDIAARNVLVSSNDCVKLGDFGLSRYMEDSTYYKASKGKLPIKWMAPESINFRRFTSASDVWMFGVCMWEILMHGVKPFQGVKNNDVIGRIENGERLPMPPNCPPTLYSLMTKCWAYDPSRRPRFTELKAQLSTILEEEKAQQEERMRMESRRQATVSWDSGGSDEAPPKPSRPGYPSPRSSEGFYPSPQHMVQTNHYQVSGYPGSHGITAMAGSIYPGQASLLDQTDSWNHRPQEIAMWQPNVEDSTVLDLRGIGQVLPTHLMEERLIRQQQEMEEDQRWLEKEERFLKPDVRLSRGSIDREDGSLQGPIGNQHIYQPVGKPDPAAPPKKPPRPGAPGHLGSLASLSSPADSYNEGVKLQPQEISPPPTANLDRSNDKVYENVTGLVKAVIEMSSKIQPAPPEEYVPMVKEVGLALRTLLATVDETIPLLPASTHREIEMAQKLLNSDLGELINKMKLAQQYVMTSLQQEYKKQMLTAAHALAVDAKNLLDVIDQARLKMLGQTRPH

For one test, the target named is T1, PTK2-phosphorylation at tyrosine 397 (pY397) (Homo sapiens, UniProt Q05397).
T1 construct: endogenous in cells; host or cells: PC-3 (ATCC CRL-1435)
T1 sequence (Q05397 whole entry): as above
Briefly: Phospho-PTK2 (pY397) Assay in PC-3 cells. The format is cell-based. Conditions: PC-3 prostate carcinoma cells, 2 h incubation; read-out: PC3pPTK2 Y397 EC50. As to the method:
This cellular test is used to determine the influence of PTK2-inhibitors on the state of the PTK2-phosphorylation at tyrosine 397 (pY397).
PC-3 cells (prostate carcinoma, ATCC CRL-1435) are grown in cell culture flasks (175 cm^2) with F12 Kaighn's Medium (Gibco, No.: 21127) with the addition of 10% foetal calf serum (Invitrogen, No.: 16000-044). The cultures are incubated in the incubator at 37° C. and 5% CO2 and run twice a week.
For the test, 2×10^4 cells pro well/[…] are plated out in 96-well microtitre plates (Costar, No.: 3598) and incubated overnight in the incubator at 37° C. and 5% CO2. The test compounds (10 μL from serial dilution) are added the next day. The concentration of the test compounds usually covers a range of 50 μM and 0.8 nM. The test compounds (stock solution: 10 mM in 100% DMSO) are diluted in medium/medium 10% DMSO such that the final concentration is 1% DMSO. The cells are then incubated in the incubator at 37° C. and 5% CO2 for 2 h. Then the culture supernatant is removed and the cells are fixed with 150 μL 4% formaldehyde in D-PBS for 20 min at RT. The cell lawn is washed five times with 200 μL 0.1% Triton X-100 in D-PBS for 5 min in each case and then incubated for 90 min with blocking buffer (5% skimmed milk powder (Maresi Fixmilch) in TBST (25 mM Tris/HCl, pH 8.0, 150 mM NaCl, 0.05% Tween 20). The blocking buffer is replaced by 50 μL of the first antibody anti-phospho PTK2 [pY397] rabbit monoclonal (Invitrogen/Biosource, No.: 44-625G), which is diluted 1:200 in blocking buffer. For control purposes, alternatively a PTK2 [total] antibody (clone 4.47 mouse monoclonal, Upstate, No.: 05-537), diluted 1:400 in blocking buffer is used. This incubation is carried out at 4° C. overnight. Then the cell lawn is washed five times with 100 μL of 0.1% Tween in D-PBS for 5 min in each case and 50 μL/well of second antibody are added. In order to detect bound phospho-PTK2 [pY397] antibody a goat-anti-rabbit antibody is used which is coupled with horseradish peroxidase (Dako, No.: P0448; 1:500 dilution in blocking buffer). In order to detect bound PTK2 [total]-antibodies a rabbit-anti-mouse antibody is used, which is also coupled with horseradish peroxidase (Dako, No.: PO161; 1:1000 dilution in blocking buffer). This incubation is carried out for 1 h at RT with gentle shaking. The cell lawn is then again washed five times with 100 μL of 0.1% Tween in D-PBS for 5 min in each case. […] The EC50 values are determined from concentration-activity analyses by iterative calculation with the aid of a sigmoidal curve analysis algorithm (FIFTY, based on GraphPAD Prism Version 3.03) with a variable Hill coefficient.
Turning to `COc1cc(CNCc2ccccc2)ccc1Nc1ncc(C(F)(F)F)c(NCc2ccc(C)cc2N(C)S(C)(=O)=O)n1` [Example 67], the EC50 is 0.7 nM.

Take `COCCNC(=O)c1ccc(Nc2ncc(C(F)(F)F)c(NCc3ccc(C)cc3N(C)S(C)(=O)=O)n2)c(OC)c1` [Example 14]: the EC50 turned out to be 0.17 nM.

In the case of `COc1cc(N2CCN(C)CC2)ccc1Nc1ncc(C(F)(F)F)c(NCc2ccc(F)cc2N(C)S(C)(=O)=O)n1` [Example 99], the EC50 came to 2 nM.

On to `COc1cc(N2CCN(C(C)C)CC2)ccc1Nc1ncc(C(F)(F)F)c(NCc2ccc(F)cc2N(C)S(C)(=O)=O)n1` [Example 75], for which the EC50 came to 0.84 nM.

Regarding `COc1ccc(CNc2nc(Nc3cc(F)c(C(=O)N[C@@H]4CCN(C)C4)cc3OC)ncc2C(F)(F)F)c(N(C)S(C)(=O)=O)c1` [Example 41], the EC50 is 0.39 nM.

Consider `COc1cc(C(=O)NC2CCN(C(C)=O)CC2)ccc1Nc1ncc(C(F)(F)F)c(NCc2ccc(C)cc2N(C)S(C)(=O)=O)n1` [Example 9], for which the EC50 turned out to be 0.14 nM.

With `COc1ccc(CNc2nc(Nc3ccc(C(=O)N[C@H]4CC[C@H](N5CCOCC5)CC4)cc3OC)ncc2C(F)(F)F)c(N(C)S(C)(=O)=O)c1` [Example 57], the EC50 was 0.57 nM.

Consider `COc1cc(C(=O)N[C@H]2CCN(C)C[C@H]2F)ccc1Nc1ncc(C(F)(F)F)c(NCc2ccc(C)cc2N(C)S(C)(=O)=O)n1` [Example 119], for which the EC50 was 3 nM.

Take `COc1cc(C(=O)N[C@@H]2CN3CCC2CC3)ccc1Nc1ncc(C(F)(F)F)c(NCc2ccc(C)cc2N(C)S(C)(=O)=O)n1` [Example 74]: the concentration for a half-maximal effect (EC50) came to 0.8 nM.

Regarding `CCN1CCC[C@@H](NC(=O)c2ccc(Nc3ncc(C(F)(F)F)c(NCc4ccc(C)cc4N(C)S(C)(=O)=O)n3)c(OC)c2)C1` [Example 17], the EC50 was 0.19 nM.

As to `COc1cc(C(=O)N[C@@H]2CCCN(C3COC3)C2)ccc1Nc1ncc(C(F)(F)F)c(NCc2ccc(C)cc2N(C)S(C)(=O)=O)n1` [Example 116], the EC50 came out at 3 nM.

On to `COc1cc(C(=O)NC2CC(C)(C)N(C)C(C)(C)C2)ccc1Nc1ncc(C(F)(F)F)c(NCc2ccc(C)cc2N(C)S(C)(=O)=O)n1` [Example 11], for which the EC50 stood at 0.16 nM.

Turning to `COc1cc(C(=O)NC(C)(C)C)c(F)cc1Nc1ncc(C(F)(F)F)c(NCc2ccc(C)cc2N(C)S(C)(=O)=O)n1` [Example 113], the EC50 was 3 nM.

The next test addresses T2, PTK2 (Homo sapiens, UniProt Q05397).
T2 construct: purchased Invitrogen PV3832
Briefly: PTK2 Enzyme Test (DELFIA assay, poly-Glu-Tyr substrate). The format is biochemical. Particulars: active PTK2 enzyme, 50 μM ATP in ATP Mix, 1 h pre-incubation. As to the method:
This test uses active PTK2 enzyme (Invitrogen Code PV3832) and poly-Glu-Tyr (4:1, Sigma P-0275) as the kinase substrate. The kinase activity is detected by means of the phosphorylation of the substrate in a DELFIA™ assay. The phosphorylated substrate is detected with the Europium-labelled phosphotyrosine antibody PY20 (Perkin Elmer, No.: AD0038).
In order to determine concentration-activity curves with PTK2-inhibitors the compounds are serially diluted in 10% DMSO/H2O and 10 μL of each dilution are dispensed per well in a 96-well microtitre plate (clear U-shaped base plate, Greiner No. 650101) (the inhibitors are tested in duplicates) and mixed with 10 μL/well of PTK2 kinase (0.01 μg/well). PTK2 kinase is diluted accordingly beforehand with kinase dilution buffer (20 mM TRIS/HCl pH 7.5, 0.1 mM EDTA, 0.1 mM EGTA, 0.286 mM sodium orthovanadate, 10% glycerol with the addition of freshly prepared BSA (fraction V 1 mg/mL) and DTT (1 mM)). The test compound and the PTK2 kinase are pre-incubated for 1 h at RT and shaken at 500 rpm. Then 20 μL ATP Mix (30 mM TRIS/HCl pH 7.5, 0.02% Brij, 0.2 mM sodium orthovanadate, 10 mM magnesium acetate, 0.1 mM EGTA, 1× Phosphatase Inhibitor Cocktail 1 (Sigma, No.: P2850), 50 μM ATP (Sigma, No.: A3377; 15 mM stock solution)) are added. The reaction is started by the addition of 10 μL/well of poly (Glu,Tyr) substrate (25 μg/well poly (Glu,Tyr), 0.05 μg/well biotinylated poly (Glu,Tyr) dissolved in 250 mM TRIS/HCl pH 7.5, 9 mM DTT)—the final concentration of DMSO is 2%. After 1 h kinase reaction (the plates are shaken at 500 rpm), the reaction is stopped by the addition of 12 μL/well of 100 mM EDTA, pH 8. And shaken for a further 5 min at RT (500 U/min).
55 μL of the reaction mixture are transferred into a streptavidin plate (Strepta Well High Bind (transparent, 96-well) made by Roche, No.: 11989685001) and incubated for 1 h at RT (shaking at 500 rpm). Then the microtitre plate is washed three times with 200 μL/well D-PBS (Invitrogen, No.:14190). 100 μL of 1:2000 diluted DELFIA Eu-N1 Anti-Phosphotyrosine PY20 antibody (Perkin Elmer, No.: AD0038, 1:2000 diluted in DELFIA test buffer (Perkin Elmer, No.: 1244-111)) is then added and it is incubated for 1 h at RT (shaking at 500 rpm). Then the plate is washed three times with 200 μL/well DELFIA washing buffer (Perkin Elmer, No.: 1244-114), 200 μL/well strengthening solution (Perkin Elmer, No.: 1244-105) is added and the whole is incubated for 10 min at RT (shaking at 300 rpm).
The time-delayed europium fluorescence is then measured in a microtitre plate reader (Victor, Perkin Elmer). The positive control consists of wells that contain solvent (2% DMSO in test buffer) and display uninhibited kinase activity. Wells that contain test buffer instead of enzyme act as a control for the background kinase activity.
The IC50 values are determined from concentration-activity analyses by iterative calculation using a sigmoidal curve analysis algorithm (FIFTY, based on GraphPAD Prism Version 3.03) with a variable Hill coefficient.
For the compound `COc1cc(CNCc2ccccc2)ccc1Nc1ncc(C(F)(F)F)c(NCc2ccc(C)cc2N(C)S(C)(=O)=O)n1` [Example 67], the IC50 amounted to 7 nM.

With `COCCNC(=O)c1ccc(Nc2ncc(C(F)(F)F)c(NCc3ccc(C)cc3N(C)S(C)(=O)=O)n2)c(OC)c1` [Example 14], the 50% inhibitory concentration (IC50) stood at 4 nM.

As to `COc1cc(N2CCN(C)CC2)ccc1Nc1ncc(C(F)(F)F)c(NCc2ccc(F)cc2N(C)S(C)(=O)=O)n1` [Example 99], the IC50 came to 1 nM.

As to `COc1cc(N2CCN(C(C)C)CC2)ccc1Nc1ncc(C(F)(F)F)c(NCc2ccc(F)cc2N(C)S(C)(=O)=O)n1` [Example 75], 1 nM corresponded to half-maximal inhibition (IC50).

For the compound `COc1ccc(CNc2nc(Nc3cc(F)c(C(=O)N[C@@H]4CCN(C)C4)cc3OC)ncc2C(F)(F)F)c(N(C)S(C)(=O)=O)c1` [Example 41], the IC50 was found to be 2 nM. Compared with the last compound, the IC50 is about 2-fold higher.

As to `COc1cc(C(=O)NC2CCN(C(C)=O)CC2)ccc1Nc1ncc(C(F)(F)F)c(NCc2ccc(C)cc2N(C)S(C)(=O)=O)n1` [Example 9], the 50% inhibitory concentration (IC50) is 6 nM.

As to `COc1ccc(CNc2nc(Nc3ccc(C(=O)N[C@H]4CC[C@H](N5CCOCC5)CC4)cc3OC)ncc2C(F)(F)F)c(N(C)S(C)(=O)=O)c1` [Example 57], half-maximal inhibition (IC50) required 2 nM.

With `COc1cc(C(=O)N[C@H]2CCN(C)C[C@H]2F)ccc1Nc1ncc(C(F)(F)F)c(NCc2ccc(C)cc2N(C)S(C)(=O)=O)n1` [Example 119], the IC50 was 3 nM.

The compound `COc1cc(C(=O)N[C@@H]2CN3CCC2CC3)ccc1Nc1ncc(C(F)(F)F)c(NCc2ccc(C)cc2N(C)S(C)(=O)=O)n1` [Example 74] had an IC50 of 3 nM.

For the compound `CCN1CCC[C@@H](NC(=O)c2ccc(Nc3ncc(C(F)(F)F)c(NCc4ccc(C)cc4N(C)S(C)(=O)=O)n3)c(OC)c2)C1` [Example 17], the IC50 came to 2 nM.

With `COc1cc(C(=O)N[C@@H]2CCCN(C3COC3)C2)ccc1Nc1ncc(C(F)(F)F)c(NCc2ccc(C)cc2N(C)S(C)(=O)=O)n1` [Example 116], the IC50 worked out at 3 nM.

As to `COc1cc(C(=O)NC2CC(C)(C)N(C)C(C)(C)C2)ccc1Nc1ncc(C(F)(F)F)c(NCc2ccc(C)cc2N(C)S(C)(=O)=O)n1` [Example 11], the IC50 was 4 nM.

The compound `COc1cc(C(=O)NC(C)(C)C)c(F)cc1Nc1ncc(C(F)(F)F)c(NCc2ccc(C)cc2N(C)S(C)(=O)=O)n1` [Example 113] gave an IC50 of 5 nM.
